Values joined by “and” are separate entries in the source; they are usually repeats but may differ in a detail not shown here. Identical values can stand only once.
Columns and labels:
[1] = Gamma spectroscopy of the 211Bi:223Ra ratio in tissues versus a standard solution; format: in vivo, Balb/C mice
Method: (§1) Methods: Young male Balb/C mice with a body weight of 19-21 g were injected with 9 kBq of ^223Ra in 150 μl of isotonic saline. Groups of five animals were sacrificed and dissected at 6 h and 3 days after injection. Sample weight was measured and samples were counted using (A) a “well type” NaI scintillation crystal (Harshaw Chemie BV, De Meern, Holland) combined with a Scaler Timer ST7 (NE Technology Ltd, Reading, UK) digital unit, (B) a Beckman LS 6500 (Beckman Instruments Inc. Fullerton, Calif., USA). Relative abundances of radionuclides were studied in blood, liver, kidney, and in standard samples with mother/daughter in equilibrium, using a Ge-detector (Canberra, Meriden, Conn., USA) combined with an amplifier and bias supply from EG&G Ortec (Oak Ridge, Tenn., USA).
The ratio of ^211Bi: ^223Ra was in the spleen at the 6 hour point on average 54% compared to a standard solution. In liver and kidneys on the other hand, the ^211Bi: ^223Ra ratios in the samples were on the average 256 and 207% of the standards respectively. […] Also the ^211Bi activity in soft tissues was in general very low compared to bone activity of this nuclide. The ^211Bi in the soft tissues may have been generated from ^223Ra present in soft tissues.

[2] = Release of daughter isotopes from fragmented femur washed with PBS; format: in vivo, mice
Method: To study potential release of daughter isotopes after ^223Ra was incorporated in bone, due to either nuclear recoil or diffusion processes, femurs from five animals killed 6 h, and 5 animals killed 3 days after injection were examined.
Methods: The bones were cleaved longitudinally, to expose the red marrow (spongious) areas, and thereafter cut into small fragments of less than 3 mg. Thereafter the samples were washed with Dulbeccos PBS (Sigma-Aldrich CO. LTD., Irvine, UK) using centrifugation. The supernatant was removed, mixed with scintillation liquid (Insta-Gel 11 plus, Packard BioScience BV, Groningen, The Netherlands) and counted on a scintillation counter (Beckman Instruments Inc. Fullerton, Calif., USA). After one day sample counting was repeated. A difference in counts after correcting for ^223Ra decay between the two measurements was used as indication of release of daughter nuclide(s) from bone matrix.

[3] = system: MT-1 human breast cancer cells; test: MT-1/nude rat model of skeletal metastases; format: in vivo, nude rats
Excerpt: It has been developed animal models with experimental metastasis pattern resembling those frequently observed in human patients (Engebraaten and Fodstad, 1999). One of these models consists of MT-1 cells injected intracardially into nude rats and is characterized by the consistent development of hind leg paralysis in the animals.
Method: The therapeutic potential of radium-223 was studied in the MT-1/nude rat model where animals were inoculated with 1×10^6 MT-1 human breast cancer cells by injection into the left ventricle of the heart as described (Engebraaten and Fodstad,. 1999). These animals usually develop paralysis caused by growth of tumours in the spine. Groups of 4 and 5 animals each were then treated seven days later by receiving an intravenous injection of 200 μl of a vehicle solution without or with 10 kBq of radium-223 according to the invention.

[4] = Biodistribution of radium-223 in Balb/C mice; format: in vivo; details: for % of injected dose per gram, femur: 9 kBq in isotonic saline
Method: as §1

[5] = Localization Index (211Bi vs 223Ra retention) in femur by gamma spectroscopy; format: in vivo, mice; details: average
Method: To examine if there was a difference in radioisotope retention between radium-223 and bismuth-211 in bone samples, gamma spectroscopic data for bone versus a standard solution with ^223Ra and daughter radionuclides in equilibrium was studied.
Methods: Gamma spectroscopy with a germanium detector (Canberra, Meriden, Conn., USA) was performed on samples of femur from mice immediately after sacrificing and dissecting the animals. Samples of a standard solution of ^223Ra and daughter radionuclides in equilibrium were studied. The distinct gamma peaks at 351.0 keV (^211Bi) and 154.2 keV (^223Ra) were used. A Localization Index (LI) was determined as follows:
E.g., BBi−^211Bi count rate in bone; SRa−^223Ra count rate in standard
Gamma spectra from five samples from the 6 h group and the 3 days group respectively were compared, to five and three samples from the standard solution respectively, using Student t-test for data columns.

[6] = system: MT-1 human breast cancer cells; details: treatment seven days after tumour cell inoculation; cited from earlier work
[7] = bone samples; after radium-226 had been administered to dogs; cited from earlier work

Structure (SMILES): [223Ra] [radium-223]
- Difference in relative distribution of radium-223 and its daughters (abundance of 211Bi) ([1]; bone and most soft tissues, gamma spectroscopy): no significant difference
- Ratio of 211Bi:223Ra, % of the standards ([1]; kidneys, average): 207%
- Ratio of 211Bi:223Ra, % of the standards ([1]; liver, average): 256%
- Ratio of 211Bi:223Ra compared to a standard solution ([1]; spleen, 6 hour point, average): 54%
- Activity dissolved in PBS during washing, compared to the total activity in bone ([2]; animals killed after 6 hours, average): 1.8%
- Translocation of daughter isotopes from bone ([2]; animals killed after 6 hours, probably): less than 2%
- Activity of washing solutions counted again, of the bone sample ([2]; animals killed after 6 hours, recounted after 12 h, average): 0.2%
- Counts in the washing solution compared to the background ([2]; animals killed after 3 days): no significant counts
- Translocation, below detection limit, of the total bone radioactivity ([2]; animals killed after 3 days, estimated detection limit): less than 1%
- Anti-tumour effect in animals with skeletal metastases ([3]; 10 kBq i.v.): significant anti-tumour effect
- Time to paralysis after tumour cell inoculation (individual animals) ([3]; 10 kBq i.v. seven days after inoculation, group of five animals, listed as 223Ra): 26 days and 40 days and 64 days
- Survival without signs of paralysis, two remaining animals (follow-up period) ([3]; 10 kBq i.v. seven days after inoculation, two of five animals): ≥ 90 days
- Femur to blood ratio ([4]; 6 h after injection): 129
- Femur to spleen ratio ([4]; 6 h after injection): 6.4
- Concentration in bone compared to soft tissues ([4]; 6 h and 3 days): selectively concentrated in bone
- Femur to blood ratio ([4]; 3 days after injection): 691
- Femur to spleen ratio ([4]; 3 days after injection): 23.7
- % of injected dose per gram, blood ([4]; 6 hours): 0.20 ± 0.23 % of injected dose per gram
- % of injected dose per gram, blood ([4]; 3 days): 0.05 ± 0.10 % of injected dose per gram
- % of injected dose per gram, brain ([4]; 6 hours): 0.04 ± 0.01 % of injected dose per gram
- % of injected dose per gram, brain ([4]; 3 days): 0.12 ± 0.12 % of injected dose per gram
- % of injected dose per gram, femur ([4]; 6 hours after injection): 25.86 ± 1.99 % of injected dose per gram
- % of injected dose per gram, femur ([4]; 3 days after injection): 34.55 ± 7.87 % of injected dose per gram
- % of injected dose per gram, heart ([4]; 6 hours): 0.10 ± 0.10 % of injected dose per gram
- % of injected dose per gram, heart ([4]; 3 days): 0.06 ± 0.07 % of injected dose per gram
- % of injected dose per gram, kidney ([4]; 6 hours): 4.04 ± 0.33 % of injected dose per gram
- % of injected dose per gram, kidney ([4]; 3 days): 0.38 ± 0.08 % of injected dose per gram
- % of injected dose per gram, large intestine ([4]; 6 hours): 2.30 ± 0.60 % of injected dose per gram
- % of injected dose per gram, large intestine ([4]; 3 days): 0.13 ± 0.02 % of injected dose per gram
- % of injected dose per gram, liver ([4]; 6 hours): 0.89 ± 0.18 % of injected dose per gram
- % of injected dose per gram, liver ([4]; 3 days): 0.22 ± 0.32 % of injected dose per gram
- % of injected dose per gram, lung ([4]; 6 hours): 0.59 ± 0.56 % of injected dose per gram
- % of injected dose per gram, lung ([4]; 3 days): 0.06 ± 0.07 % of injected dose per gram
- % of injected dose per gram, muscle ([4]; 6 hours): 0.72 ± 0.39 % of injected dose per gram
- % of injected dose per gram, muscle ([4]; 3 days): 0.30 ± 0.16 % of injected dose per gram
- % of injected dose per gram, small intestine ([4]; 6 hours): 0.79 ± 0.26 % of injected dose per gram
- % of injected dose per gram, small intestine ([4]; 3 days): 0.04 ± 0.03 % of injected dose per gram
- % of injected dose per gram, spleen ([4]; 6 hours): 4.06 ± 1.4 % of injected dose per gram
- % of injected dose per gram, spleen ([4]; 3 days): 1.46 ± 0.54 % of injected dose per gram
- Localization Index LI=(BBi/SBi)/(BRa/SRa) ([5]; 6 h point, P=0.059): 0.85
- Localization Index LI=(BBi/SBi)/(BRa/SRa) ([5]; 3 day point, P=0.749): 0.97

Structure (SMILES): COc1cccc2c1C(=O)c1c(O)c3c(c(O)c1C2=O)C[C@@](O)(C(=O)CO)C[C@@H]3O[C@H]1C[C@H](N)[C@H](O)[C@H](C)O1 [doxorubicin]
- Effect on survival [6]: did not improve survival

Structure (SMILES): N.N.[Cl][Pt][Cl] [cisplatin]
- Effect on survival [6]: did not improve survival

Structure (SMILES): [226Ra] [radium-226]
- Radon-222 escaped from the bone [7]: 89.5-94.25%
